The results in this text go back to PubChem BioAssay AID200 (DTP/NCI, 2004).

SMILES strings stand for the structures. “And” between values parts separate entries of the source, which are not always exact repeats. Identical values can stand only once. Toxic doses and inconclusive results are not listed.

In the experiment the test system is B6C3F1 mice, B16 melanoma ip, median survival T/C. Description: NCI In Vivo Anticancer Drug Screen. Data for tumor model B16 Melanoma (intraperitoneal) in B6C3F1 mice. As to conditions: endpoint: median survival time, higher = longer survival. How it is done: The antitumor activity of compounds was measured in mice bearing transplantable tumors. Survival or tumor size were measured and the results are expressed as the measurement made in the treated group (T) divided by the measurement made in the vehicle treated control group (C). The tumor model used in this assay is B16 Melanoma (intraperitoneal) in B6C3F1 mice

The mark [1] stands for this setting: dose: 12.5 mg/kg/injection, schedule: Q01DX009 (ip), vehicle: saline with Tween-80.
Setting [2] is: dose: 25.0 mg/kg/injection, schedule: Q01DX009 (ip), vehicle: saline with Tween-80.
Setting [3] is: dose: 50.0 mg/kg/injection, schedule: Q01DX009 (ip), vehicle: saline with Tween-80.
Setting [4] is: dose: 100.0 mg/kg/injection, schedule: Q01DX009 (ip), vehicle: saline with Tween-80.
[5] abbreviates: dose: 200.0 mg/kg/injection, schedule: Q01DX009 (ip), vehicle: saline with Tween-80.
Where [6] appears, read: dose: 0.78 mg/kg/injection, schedule: Q01DX009 (ip), vehicle: saline with Tween-80.
The mark [7] stands for this setting: dose: 1.56 mg/kg/injection, schedule: Q01DX009 (ip), vehicle: saline with Tween-80.
[8] abbreviates: dose: 6.25 mg/kg/injection, schedule: Q01DX009 (ip), vehicle: saline with Tween-80.
The mark [9] stands for this setting: dose: 3.12 mg/kg/injection, schedule: Q01DX009 (ip), vehicle: saline with Tween-80.
The mark [10] stands for this setting: dose: 3.0 mg/kg/injection, schedule: Q01DX009 (ip), vehicle: saline.
[11] abbreviates: dose: 12.5 mg/kg/injection, schedule: Q01DX009 (ip), vehicle: Klucel (hydroxypropylcellulose) (HPC).
The mark [12] stands for this setting: dose: 25.0 mg/kg/injection, schedule: Q01DX009 (ip), vehicle: Klucel (hydroxypropylcellulose) (HPC).
[13] abbreviates: dose: 50.0 mg/kg/injection, schedule: Q01DX009 (ip), vehicle: Klucel (hydroxypropylcellulose) (HPC).

As to `O=CC=O`, the T/C runs as follows: under setting [1], 114 % of control; under setting [2], 110 % of control; under setting [3], 102 % of control and 108 % of control; under setting [4], 114 % of control and 106 % of control; under setting [5], 120 % of control and 108 % of control.
With `Nc1c(Cl)[nH]cnc1=S`, the T/C (dose: 25.0 mg/kg/injection, schedule: Q01DX009 (ip), vehicle: saline) was 89 % of control; the T/C (dose: 50.0 mg/kg/injection, schedule: Q01DX009 (ip), vehicle: saline) is 105 % of control; the T/C (dose: 100.0 mg/kg/injection, schedule: Q01DX009 (ip), vehicle: saline) was 88 % of control and 91 % of control.
Consider `O=C(Oc1ccc(-c2ccc(Br)cc2)cc1)c1ccco1`, for which the T/C by setting is: under setting [6], 107 % of control; under setting [7], 106 % of control; (dose: 3.13 mg/kg/injection, schedule: Q01DX009 (ip), vehicle: saline with Tween-80) 102 % of control; under setting [8], 111 % of control and 100 % of control; under setting [2], 92 % of control; under setting [3], 97 % of control.
Turning to `OCC1OC(n2cnc3c(SCc4ccccc4)ncnc32)C(O)C1O` (configuration not stated), the T/C is 171 % of control (dose: 37.5 mg/kg/injection, schedule: Q01DX009 (ip), vehicle: saline with Tween-80); 167 % of control (dose: 75.0 mg/kg/injection, schedule: Q01DX009 (ip), vehicle: saline with Tween-80); 182 % of control (dose: 150.0 mg/kg/injection, schedule: Q01DX009 (ip), vehicle: saline with Tween-80).
On to `CC(C)C(NC(=O)OC(C)(C)C)C(=O)ON1C(=O)CCC1=O` (configuration not stated), for which the T/C was 91 % of control under setting [3] and 86 % of control under setting [4].
Take `CCOC(OCC)C(=O)OCC(=O)[C@]1(O)Cc2c(O)c3c(c(O)c2[C@@H](OC2CC(N)C(O)C(C)O2)C1)C(=O)c1c(OC)cccc1C3=O` (some centres not stated): the T/C (dose: 0.12 mg/kg/injection, schedule: Q01DX009 (ip), vehicle: water) is 155 % of control; the T/C (dose: 0.13 mg/kg/injection, schedule: Q01DX009 (ip), vehicle: water) was 165 % of control; the T/C (dose: 0.25 mg/kg/injection, schedule: Q01DX009 (ip), vehicle: water) is 177 % of control and 182 % of control; the T/C (dose: 0.5 mg/kg/injection, schedule: Q01DX009 (ip), vehicle: water) is 208 % of control and 285 % of control; the T/C (dose: 1.0 mg/kg/injection, schedule: Q01DX009 (ip), vehicle: water) is 189 % of control and 285 % of control; the T/C (dose: 2.0 mg/kg/injection, schedule: Q01DX009 (ip), vehicle: water) is 212 % of control and 285 % of control. The T/C (dose: 4.0 mg/kg/injection, schedule: Q01DX009 (ip), vehicle: water) was 285 % of control.
Take `CC(C)(C)N1CC1CNC(=O)C(=O)NCC1CN1C(C)(C)C` (configuration not stated): the T/C reads like this: under setting [6], 99 % of control; under setting [7], 101 % of control; under setting [9], 109 % of control; under setting [1], 150 % of control.
In the case of `COC(=O)C[C@](O)(CCC(C)(C)O)C(=O)O[C@@H]1C(OC)=C[C@]23CCCN2CCc2cc4c(cc2[C@H]13)OCO4`, the T/C was 124 % of control (dose: 0.25 mg/kg/injection, schedule: Q01DX009 (ip), vehicle: saline); 154 % of control and 161 % of control (dose: 0.5 mg/kg/injection, schedule: Q01DX009 (ip), vehicle: saline); 161 % of control and 168 % of control (dose: 1.0 mg/kg/injection, schedule: Q01DX009 (ip), vehicle: saline); 168 % of control (dose: 2.0 mg/kg/injection, schedule: Q01DX009 (ip), vehicle: saline).
Regarding `ClCC[Se](Cl)(Cl)c1ccccc1`, the T/C is 102 % of control (dose: 1.5 mg/kg/injection, schedule: Q01DX009 (ip), vehicle: saline); 113 % of control (dose: 1.56 mg/kg/injection, schedule: Q01DX009 (ip), vehicle: saline); 116 % of control under setting [10]; 108 % of control (dose: 6.0 mg/kg/injection, schedule: Q01DX009 (ip), vehicle: saline).
Turning to `COC12C(COC(=O)NCCO)C3=C(C(=O)C(C)=C(N)C3=O)N1CC1NC12` (configuration not stated), the T/C is, setting by setting: (dose: 3.13 mg/kg/injection, schedule: Q01DX009 (ip), vehicle: Klucel (hydroxypropylcellulose) (HPC)) 110 % of control; under setting [11], 205 % of control; under setting [12], 121 % of control.
Consider `Cn1c2ccccc2c2ccc3c(c21)C(=O)C=CC3=O`, for which the T/C reads like this: (dose: 6.25 mg/kg/injection, schedule: Q01DX009 (ip), vehicle: Klucel (hydroxypropylcellulose) (HPC)) 96 % of control; under setting [11], 107 % of control.
As to `[Cl][Pt+2][Cl].[NH-]C1CCC1.[NH2-]`, the T/C is 151 % of control (dose: 0.75 mg/kg/injection, schedule: Q01DX009 (ip), vehicle: saline) and 205 % of control under setting [10].
Consider `CC(=S)NC(O)C(=O)c1ccccc1` (configuration not stated), for which the T/C by setting is: (dose: 12.5 mg/kg/injection, schedule: Q01DX009 (ip), vehicle: distilled water + Tween-80) 104 % of control; under setting [1], 95 % of control; (dose: 25.0 mg/kg/injection, schedule: Q01DX009 (ip), vehicle: distilled water + Tween-80) 107 % of control; under setting [2], 94 % of control; (dose: 50.0 mg/kg/injection, schedule: Q01DX009 (ip), vehicle: distilled water + Tween-80) 98 % of control; under setting [3], 93 % of control. The T/C (dose: 100.0 mg/kg/injection, schedule: Q01DX009 (ip), vehicle: distilled water + Tween-80) was 113 % of control; the T/C under setting [4] was 93 % of control; the T/C under setting [5] is 89 % of control.
Consider `COC1=Nc2ccccc2N2CCN=C12`, for which the T/C by setting is: (dose: 6.25 mg/kg/injection, schedule: Q04DX003 (ip), vehicle: saline with Tween-80) 103 % of control; (dose: 12.5 mg/kg/injection, schedule: Q04DX003 (ip), vehicle: saline with Tween-80) 106 % of control; (dose: 25.0 mg/kg/injection, schedule: Q04DX003 (ip), vehicle: saline with Tween-80) 96 % of control; (dose: 50.0 mg/kg/injection, schedule: Q04DX003 (ip), vehicle: saline with Tween-80) 96 % of control.
For `COC(=O)C12OCC34C(CC5C(C)=CC(=O)C(O)C5(C)C3C(O)C1O)OC(=O)C(OC(=O)CC(C)C)C24` (configuration not stated), the T/C runs as follows: (dose: 0.25 mg/kg/injection, schedule: Q01DX009 (ip), vehicle: saline + alcohol) 164 % of control; (dose: 0.5 mg/kg/injection, schedule: Q01DX009 (ip), vehicle: saline + alcohol) 180 % of control; (dose: 1.0 mg/kg/injection, schedule: Q01DX009 (ip), vehicle: saline + alcohol) 164 % of control; (dose: 2.0 mg/kg/injection, schedule: Q01DX009 (ip), vehicle: saline + alcohol) 159 % of control.
`OC1CCCC2CCC[N-]C12.OC1CCCC2CCC[N-]C12.[Mn+2]` (configuration not stated): the T/C is, setting by setting: under setting [12], 109 % of control; under setting [13], 102 % of control.
With `O=C(Cl)c1ccccc1S(=O)(=O)N(CCOc1ccccc1)c1ccccc1`, the T/C is, setting by setting: under setting [13], 90 % of control; (dose: 100.0 mg/kg/injection, schedule: Q01DX009 (ip), vehicle: Klucel (hydroxypropylcellulose) (HPC)) 94 % of control; (dose: 200.0 mg/kg/injection, schedule: Q01DX009 (ip), vehicle: Klucel (hydroxypropylcellulose) (HPC)) 90 % of control.
Consider `Cc1c(C)c2c(c(C)c1OC(=O)CCC(=O)O)CCC(C)(CCCC(C)CCCC(C)CCCC(C)C)O2` (configuration not stated), for which the T/C runs as follows: (dose: 25.0 mg/kg/injection, schedule: Q01DX009 (ip), vehicle: distilled water + Tween-80 + alcohol) 96 % of control; (dose: 50.0 mg/kg/injection, schedule: Q01DX009 (ip), vehicle: distilled water + Tween-80 + alcohol) 112 % of control; (dose: 100.0 mg/kg/injection, schedule: Q01DX009 (ip), vehicle: distilled water + Tween-80 + alcohol) 114 % of control; (dose: 200.0 mg/kg/injection, schedule: Q01DX009 (ip), vehicle: distilled water + Tween-80 + alcohol) 86 % of control.
Take `CC(=O)Nc1ccc(Nc2ccc(C(=C3C=CC(=[N+](C)CCC#N)C=C3)c3ccc(N(C)CCC#N)cc3)cc2)cc1`: the T/C runs as follows: under setting [6], 105 % of control; under setting [7], 108 % of control; under setting [9], 105 % of control; under setting [8], 107 % of control; under setting [1], 120 % of control; under setting [2], 106 % of control.
